Measured values: patent US5010057A, “Renin-inhibiting peptides having an aminomethyl side chain” (Bayer Aktiengesellschaft, priority 1988, dated 1991)
pIC50: −log10 of the molar value. Starred links: 1 amine or outer side, 2 acyl side, 3 side chain; linkers in the order of their positions; H or OH if unused. Non-standard residues stand in square brackets, D forms with d. Residues, ends and D or L forms follow the SMILES beside them. *: point of attachment. X2 = NCC(C(=O)[*:2])C(O)[C@H](CC1CCCCC1)N[*:1]; X1 = CC(C)C[C@H](N[*:1])C(O)C(CN)C(=O)[*:2]; NHCH2(2-pyridyl) = c1ccc(CN*)nc1; Boc = CC(C)(C)OC(=O)*

Molecular target: T1, endogenous renin from human plasma (Homo sapiens, UniProt P00797)
T1 construct: endogenous renin from human plasma; from tissue; host or cells: pooled human plasma (EDTA)
T1 sequence (P00797 67-406): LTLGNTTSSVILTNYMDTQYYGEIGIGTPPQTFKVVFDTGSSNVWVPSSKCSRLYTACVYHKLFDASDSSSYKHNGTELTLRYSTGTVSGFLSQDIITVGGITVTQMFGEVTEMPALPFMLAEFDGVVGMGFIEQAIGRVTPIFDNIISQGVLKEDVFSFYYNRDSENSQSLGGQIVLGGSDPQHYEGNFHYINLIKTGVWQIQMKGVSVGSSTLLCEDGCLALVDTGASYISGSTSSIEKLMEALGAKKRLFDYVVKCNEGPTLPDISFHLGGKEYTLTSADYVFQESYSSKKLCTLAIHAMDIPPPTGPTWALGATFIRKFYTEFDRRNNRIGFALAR
Assay: In vitro test: inhibition of plasma renin activity (angiotensin I formation, radioimmunoassay)
Format: biochemical
Conditions: pooled human plasma, 37° C., pH 5.6; for % Inhibition: plasma renin activity, test concentration not given; for pIC50: 50% inhibition of plasma renin activity
Procedure: The inhibitory strength of the peptides according to the invention against endogenous renin from human plasma is determined in vitro. Pooled human plasma is obtained with the addition of ethylenediamintetraacetic acid (EDTA) as an anticoagulant and stored at -20° C. The plasma renin activities (PRA) are determined as the rate of formation of angiotensin I from endogenous angiotensinogen and renin by incubation at 37° C. The reaction solution contains 150 μl of plasma, 3 μl of 6.6% strength 8-hydroxyquinoline sulphate solution, 3 μl of 10% strength dimercaprol solution and 144 μl of sodium phosphate buffer (0.2 M; 0.1% EDTA; pH 5.6) with or without the substances according to the invention in various concentrations. The angiotensin I formed per unit of time is determined using a radioimmunoassay (Sorin Biomedica, Italy). The percentage inhibition of the plasma renin activity is calculated by comparison of […]. The concentration range in which the substances claimed herein show a 50% inhibition of plasma renin activity is between 10^-4 to 10^-9 M.

% Inhibition | pIC50 | Structure (SMILES)
96% | 4.96 | CC[C@H](C)[C@H](NC(=O)C(CN)C(O)[C@H](Cc1ccccc1)NC(=O)[C@H](Cc1c[nH]cn1)NC(=O)[C@H](Cc1ccccc1)NC(=O)OC(C)(C)C)C(=O)OC (some centres unmarked) [Example 77]
95% | 5.60 | CC[C@H](C)[C@H](NC(=O)C(CN)C(O)[C@H](Cc1ccccc1)NC(=O)[C@H](Cc1c[nH]cn1)NC(=O)[C@H](Cc1ccccc1)NC(=O)OC(C)(C)C)C(=O)NCc1ccccn1 (some centres unmarked) [Example 79]
89% | 5.85 | CC[C@H](C)[C@H](NC(=O)C(CN)C(O)[C@H](CC1CCCCC1)NC(=O)[C@H](Cc1c[nH]cn1)NC(=O)[C@H](Cc1ccccc1)NC(=O)OC(C)(C)C)C(=O)OC (some centres unmarked) [Example 82]
100% | 7.04 | CC[C@H](C)[C@H](NC(=O)C(CN)C(O)[C@H](CC1CCCCC1)NC(=O)[C@H](Cc1c[nH]cn1)NC(=O)[C@H](Cc1ccccc1)NC(=O)OC(C)(C)C)C(=O)NCc1ccccn1 (some centres unmarked) [Example 84]
100% | 6.62 | CC[C@H](C)[C@H](NC(=O)C(CN)C(O)[C@H](CC1CCCCC1)NC(=O)[C@H](Cc1c[nH]cn1)NC(=O)[C@H](Cc1ccccc1)NC(=O)[C@@H]1CCCN1C(=O)OC(C)(C)C)C(=O)NCc1ccccn1 (some centres unmarked) [Example 85] (Boc-PFH[X2]I-{NHCH2(2-pyridyl)})
92% | 5.05 | CC(C)CNC(=O)C(CN)C(O)[C@H](CC1CCCCC1)NC(=O)[C@H](Cc1c[nH]cn1)NC(=O)[C@H](Cc1ccccc1)NC(=O)OC(C)(C)C (some centres unmarked) [Example 86]
100% | 5.43 | CC[C@H](C)[C@H](NC(=O)C(CN)C(O)[C@H](CC(C)C)NC(=O)[C@H](Cc1c[nH]cn1)NC(=O)[C@H](Cc1ccccc1)NC(=O)OC(C)(C)C)C(=O)OC (some centres unmarked) [Example 94]
100% | 6.00 | CC[C@H](C)[C@H](NC(=O)C(CN)C(O)[C@H](CC(C)C)NC(=O)[C@H](Cc1c[nH]cn1)NC(=O)[C@H](Cc1ccccc1)NC(=O)OC(C)(C)C)C(=O)NCc1ccccn1 (some centres unmarked) [Example 96]
100% | 7.66 | CC[C@H](C)[C@H](NC(=O)C(CN)C(O)[C@H](CC(C)C)NC(=O)[C@H](Cc1c[nH]cn1)NC(=O)[C@H](Cc1ccccc1)NC(=O)[C@@H]1CCCN1C(=O)OC(C)(C)C)C(=O)NCc1ccccn1 (some centres unmarked) [Example 97] (Boc-PFH[X1]I-{NHCH2(2-pyridyl)})

Structure (SMILES) | % Inhibition | pIC50
CC[C@H](C)[C@H](NC(=O)C1CN(Cc2ccccc2)OC1[C@H](Cc1ccccc1)NC(=O)[C@H](Cc1c[nH]cn1)NC(=O)[C@H](Cc1ccccc1)NC(=O)OC(C)(C)C)C(=O)OC (some centres unmarked) [Example 31] | 31% | 
CC[C@H](C)[C@H](NC(=O)C1CN(Cc2ccccc2)OC1[C@H](CC1CCCCC1)NC(=O)[C@H](Cc1c[nH]cn1)NC(=O)[C@H](Cc1ccccc1)NC(=O)OC(C)(C)C)C(=O)OC (some centres unmarked) [Example 39] | 67% | 
